Source: ChEMBL document CHEMBL1201862, “PubChem BioAssay data set” (2004)
Values joined by “and” are separate entries in the source; they are usually repeats but may differ in a detail not shown here. Identical values can stand only once. Active and inactive are the calls of the source.

Key:
Troponin, cardiac muscle = Troponin, cardiac muscle (Homo sapiens, UniProt P19429+P45379+P63316); assay: Fluorescence-based biochemical high throughput dose response assay for activators of the calcium sensitivity of cardiac Regulated Thin Filaments (RTF). [Related pubchem assays (depositor defined):AID493008, AID493018, AID504382, AID504383]; type: protein-complex assay
H9c2 = assay: cells; type: functional, cell-based; settings: Rattus norvegicus, H9c2, Myocardium;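 note: confirmatory concentration-response retest of ultra-high-throughput screening hits for modulation of myocardial damage; cell death induced by hydrogen peroxide oxidative stress; compound pretreatment for 60 min then peroxide exposure for 2 h; potency is for protecting the cells against peroxide damage rather than for killing them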
Coagulation factor XII = biological target: T1, Coagulation factor XII (Homo sapiens, UniProt P00748); type: functional;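 note: activated factor XIIa alpha cleaving a fluorogenic AMC peptide substrate; inhibitor potency from loss of enzyme activity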
T1 sequence (P00748 whole entry): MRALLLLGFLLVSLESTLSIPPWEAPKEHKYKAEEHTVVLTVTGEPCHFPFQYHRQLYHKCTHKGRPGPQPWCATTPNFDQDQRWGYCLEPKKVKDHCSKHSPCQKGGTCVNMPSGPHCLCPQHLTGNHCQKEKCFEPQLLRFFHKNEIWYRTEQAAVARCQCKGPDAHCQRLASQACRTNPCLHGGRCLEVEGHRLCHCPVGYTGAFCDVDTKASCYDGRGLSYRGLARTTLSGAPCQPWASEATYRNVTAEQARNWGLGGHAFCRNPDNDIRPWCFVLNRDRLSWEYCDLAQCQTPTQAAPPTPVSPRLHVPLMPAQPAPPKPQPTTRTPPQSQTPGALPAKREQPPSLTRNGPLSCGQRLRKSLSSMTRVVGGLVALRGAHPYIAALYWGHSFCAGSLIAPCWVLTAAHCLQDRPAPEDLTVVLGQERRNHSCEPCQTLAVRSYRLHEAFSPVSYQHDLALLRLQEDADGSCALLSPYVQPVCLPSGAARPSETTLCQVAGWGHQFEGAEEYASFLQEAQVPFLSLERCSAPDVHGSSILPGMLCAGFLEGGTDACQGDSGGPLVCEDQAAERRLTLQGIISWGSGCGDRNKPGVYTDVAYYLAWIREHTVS

[1] = biological target: DNA dC->dU-editing enzyme APOBEC-3G (Homo sapiens, UniProt Q9HC16); assay: Dose Response confirmation of small molecule APOBEC3G DNA Deaminase Inhibitors via a fluorescence-based single-stranded DNA deaminase assay. [Related pubchem assays (depositor defined):AID493012, AID493028]; type: functional
Leucine aminopeptidase = biological target: T2, Leucine aminopeptidase (Plasmodium falciparum 3D7, UniProt Q8IL11); assay: P. falciparum M17LAP inhibitors, primary screen, biochemical, fluorogenic H-Leu-NHMec substrate, 1536-well (AID 1619); type: functional
T2 sequence (Q8IL11 whole entry): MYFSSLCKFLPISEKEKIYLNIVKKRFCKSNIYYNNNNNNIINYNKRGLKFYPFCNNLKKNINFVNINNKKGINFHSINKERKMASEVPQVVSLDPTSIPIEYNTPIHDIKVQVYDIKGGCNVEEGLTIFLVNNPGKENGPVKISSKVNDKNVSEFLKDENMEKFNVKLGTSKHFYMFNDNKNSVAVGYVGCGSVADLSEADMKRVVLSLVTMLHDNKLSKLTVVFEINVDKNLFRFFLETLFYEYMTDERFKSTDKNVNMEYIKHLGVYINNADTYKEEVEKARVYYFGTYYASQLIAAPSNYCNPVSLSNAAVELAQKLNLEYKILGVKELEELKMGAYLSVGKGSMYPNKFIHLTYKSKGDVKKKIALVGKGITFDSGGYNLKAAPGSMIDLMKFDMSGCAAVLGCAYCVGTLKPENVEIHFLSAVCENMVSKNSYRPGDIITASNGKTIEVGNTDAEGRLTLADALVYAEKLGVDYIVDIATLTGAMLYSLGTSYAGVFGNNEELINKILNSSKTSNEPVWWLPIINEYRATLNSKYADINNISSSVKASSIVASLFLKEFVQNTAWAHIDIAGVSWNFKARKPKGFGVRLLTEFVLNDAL

Protein RecA = biological target: T3, Protein RecA (Mycobacterium tuberculosis, UniProt P9WHJ3); assay: Fluorescence Cell-Free Homogeneous Dose Retest to Identify Inhibitors of RecA-Intein Splicing Activity. [Related pubchem assays (depositor defined):AID2097, AID2223, AID489010, AID492950]; type: functional
T3 sequence (P9WHJ3 whole entry): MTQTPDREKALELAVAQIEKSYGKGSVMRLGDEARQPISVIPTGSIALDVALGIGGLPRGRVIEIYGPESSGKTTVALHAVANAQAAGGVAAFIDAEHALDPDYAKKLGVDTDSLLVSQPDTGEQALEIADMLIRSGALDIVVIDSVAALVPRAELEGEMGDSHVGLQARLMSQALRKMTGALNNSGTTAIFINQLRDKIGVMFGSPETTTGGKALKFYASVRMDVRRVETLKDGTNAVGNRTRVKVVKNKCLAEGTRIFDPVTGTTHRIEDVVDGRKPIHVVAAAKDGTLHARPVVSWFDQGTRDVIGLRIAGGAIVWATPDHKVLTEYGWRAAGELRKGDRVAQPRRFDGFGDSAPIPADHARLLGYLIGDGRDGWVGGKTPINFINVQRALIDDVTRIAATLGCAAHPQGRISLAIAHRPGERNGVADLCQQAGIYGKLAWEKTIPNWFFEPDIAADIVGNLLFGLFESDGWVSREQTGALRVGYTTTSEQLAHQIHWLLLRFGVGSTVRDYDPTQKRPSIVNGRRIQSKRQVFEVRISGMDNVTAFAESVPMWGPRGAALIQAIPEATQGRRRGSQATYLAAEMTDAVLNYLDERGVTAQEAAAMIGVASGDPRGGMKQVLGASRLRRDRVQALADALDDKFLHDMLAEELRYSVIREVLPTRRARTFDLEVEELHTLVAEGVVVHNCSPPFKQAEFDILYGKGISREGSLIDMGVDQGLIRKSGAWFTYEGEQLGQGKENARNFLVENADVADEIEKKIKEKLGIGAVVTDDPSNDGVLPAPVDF

[2] = biological target: T4, Replicative DNA helicase DnaB (Mycobacterium tuberculosis, UniProt P9WMR3); assay: DnaB intein splicing inhibitors, dose response, biochemical, cell-free fluorescence (AID 449749); type: functional
T4 sequence (P9WMR3 whole entry): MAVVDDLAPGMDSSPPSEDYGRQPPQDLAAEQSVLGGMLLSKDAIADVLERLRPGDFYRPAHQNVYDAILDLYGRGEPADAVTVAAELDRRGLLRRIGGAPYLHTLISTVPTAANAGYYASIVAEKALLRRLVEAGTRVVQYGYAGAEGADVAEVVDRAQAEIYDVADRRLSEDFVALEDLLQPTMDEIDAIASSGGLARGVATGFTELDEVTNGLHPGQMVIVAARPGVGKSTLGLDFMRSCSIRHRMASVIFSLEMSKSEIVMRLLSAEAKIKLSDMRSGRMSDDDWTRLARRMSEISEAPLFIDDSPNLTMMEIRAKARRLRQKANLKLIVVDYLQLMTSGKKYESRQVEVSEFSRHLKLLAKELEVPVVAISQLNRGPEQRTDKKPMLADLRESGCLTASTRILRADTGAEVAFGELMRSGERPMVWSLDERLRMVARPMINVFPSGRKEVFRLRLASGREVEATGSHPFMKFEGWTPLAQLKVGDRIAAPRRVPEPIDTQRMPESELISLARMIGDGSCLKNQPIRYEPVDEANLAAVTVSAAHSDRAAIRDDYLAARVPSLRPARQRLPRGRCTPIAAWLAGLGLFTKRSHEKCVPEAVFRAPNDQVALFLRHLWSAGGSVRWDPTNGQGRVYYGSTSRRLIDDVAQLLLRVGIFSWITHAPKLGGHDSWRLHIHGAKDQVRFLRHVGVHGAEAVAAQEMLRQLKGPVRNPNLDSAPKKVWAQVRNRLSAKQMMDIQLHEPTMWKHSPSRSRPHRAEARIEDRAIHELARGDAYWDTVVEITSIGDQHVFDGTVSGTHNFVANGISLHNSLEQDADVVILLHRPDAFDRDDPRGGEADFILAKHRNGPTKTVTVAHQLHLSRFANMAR

[3] = biological target: T5, Short transient receptor potential channel 4 (Mus musculus, UniProt Q9QUQ5); assay: calcium entry via TRPC4 opening agents – cell-based, HEK293 TRPC4/mu-opioid, Fluo-4 calcium, dose response (AID 434937); type: functional
T5 sequence (Q9QUQ5 whole entry): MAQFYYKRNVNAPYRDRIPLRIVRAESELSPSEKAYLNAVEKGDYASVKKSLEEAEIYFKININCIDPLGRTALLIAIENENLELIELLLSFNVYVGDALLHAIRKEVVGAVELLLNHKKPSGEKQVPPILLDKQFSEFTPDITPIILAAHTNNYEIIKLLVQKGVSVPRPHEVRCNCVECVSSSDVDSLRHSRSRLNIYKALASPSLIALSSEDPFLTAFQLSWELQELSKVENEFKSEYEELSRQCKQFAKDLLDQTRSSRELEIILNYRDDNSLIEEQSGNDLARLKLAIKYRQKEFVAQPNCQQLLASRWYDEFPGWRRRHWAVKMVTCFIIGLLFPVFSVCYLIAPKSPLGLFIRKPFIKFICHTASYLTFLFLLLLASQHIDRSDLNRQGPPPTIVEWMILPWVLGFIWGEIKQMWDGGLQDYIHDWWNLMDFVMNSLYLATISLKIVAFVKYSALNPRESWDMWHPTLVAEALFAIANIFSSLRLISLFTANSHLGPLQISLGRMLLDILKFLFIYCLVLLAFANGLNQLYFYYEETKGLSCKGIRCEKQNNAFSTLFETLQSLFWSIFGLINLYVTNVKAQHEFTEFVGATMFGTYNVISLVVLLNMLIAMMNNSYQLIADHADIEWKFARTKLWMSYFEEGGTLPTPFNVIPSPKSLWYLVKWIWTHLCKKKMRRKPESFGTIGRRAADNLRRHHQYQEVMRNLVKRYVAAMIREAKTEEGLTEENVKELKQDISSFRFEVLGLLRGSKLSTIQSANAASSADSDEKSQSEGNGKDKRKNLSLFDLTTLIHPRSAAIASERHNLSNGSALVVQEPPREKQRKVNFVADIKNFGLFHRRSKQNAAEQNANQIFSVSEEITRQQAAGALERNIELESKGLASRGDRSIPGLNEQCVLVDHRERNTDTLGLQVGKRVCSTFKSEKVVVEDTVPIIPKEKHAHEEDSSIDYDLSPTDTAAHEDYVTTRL

X-box-binding protein 1 = biological target: T6, X-box-binding protein 1 (Homo sapiens, UniProt P17861); type: functional, Cricetulus griseus;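 note: confirmatory dose-response counter-screen serving a CHOP assay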
T6 sequence (P17861 whole entry): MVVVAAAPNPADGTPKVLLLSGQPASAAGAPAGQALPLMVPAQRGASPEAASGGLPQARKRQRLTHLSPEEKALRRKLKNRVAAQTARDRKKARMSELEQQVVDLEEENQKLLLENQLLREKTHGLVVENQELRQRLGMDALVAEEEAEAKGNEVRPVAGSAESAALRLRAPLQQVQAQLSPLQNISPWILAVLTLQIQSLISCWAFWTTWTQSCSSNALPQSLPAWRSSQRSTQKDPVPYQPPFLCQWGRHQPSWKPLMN

Cytochrome P450 2C19 = Cytochrome P450 2C19 (Homo sapiens, UniProt P33261); assay: Cytochrome panel assay with activity outcomes. Panel member name: p450-cyp2c19 Compounds with AC50 equal or less than 10 uM are considered active; type: functional; settings: read-out: AC50
[4] = microbe, parasite or virus in culture; type: functional; settings: Mycobacterium tuberculosis
Cytochrome P450 1A2 = biological target: T7, Cytochrome P450 1A2 (Homo sapiens, UniProt P05177);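 note: PubChem cytochrome P450 panel assay, CYP1A2 panel member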
T7 sequence (P05177 whole entry): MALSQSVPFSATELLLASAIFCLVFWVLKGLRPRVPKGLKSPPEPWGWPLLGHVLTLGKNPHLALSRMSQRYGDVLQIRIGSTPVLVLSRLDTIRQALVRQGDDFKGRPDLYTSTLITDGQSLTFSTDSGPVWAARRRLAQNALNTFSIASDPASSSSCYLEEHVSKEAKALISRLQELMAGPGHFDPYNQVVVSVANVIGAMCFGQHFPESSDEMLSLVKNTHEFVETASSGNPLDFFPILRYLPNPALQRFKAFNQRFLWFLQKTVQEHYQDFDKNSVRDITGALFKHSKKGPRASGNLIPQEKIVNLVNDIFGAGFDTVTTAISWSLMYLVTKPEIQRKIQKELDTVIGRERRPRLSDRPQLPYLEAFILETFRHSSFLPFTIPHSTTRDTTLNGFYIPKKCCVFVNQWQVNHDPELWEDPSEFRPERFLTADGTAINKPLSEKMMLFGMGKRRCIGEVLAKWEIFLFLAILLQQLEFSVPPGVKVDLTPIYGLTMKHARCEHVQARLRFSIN

Melanocortin receptor 4 = Melanocortin receptor 4 (Homo sapiens, UniProt P32245); type: functional, cell-based;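 note: Cell-based assay with luminescence read-out, confirmatory dose-response testing for agonist activity of biased ligands at MC4R; human U2OS cells with tagged receptor and beta-arrestin; potency of agonists that increase receptor coupling to beta-arrestin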

COc1ccc(/C=N/NC(=O)c2cc(OC)c(OC)c(OC)c2)cc1CN1CCc2cc(OC)c(OC)cc2C1C (configuration not stated)
EC50 (Troponin, cardiac muscle): > 71.5 µM (inactive)
IC50 (H9c2): 19.5 µM (active)

Cc1ccc(S(=O)(=O)NCCCCCC(=O)Nc2ccccc2C)cc1
EC50 (Troponin, cardiac muscle): > 71.5 µM (inactive)

Cc1nc2ccccc2n1C1CCN(Cc2nnnn2CCc2ccccc2)CC1
IC50 (Coagulation factor XII): > 50 µM (inactive)

CCOc1ccccc1N1C(=O)CC(Sc2n[nH]c(-c3ccccc3)n2)C1=O (configuration not stated)
IC50 [1]: 9.92 µM (active)
IC50 (Leucine aminopeptidase): 8.97 µM (active)

O=C1NCN(c2ccccc2)C12CCN(CCCC(c1ccc(F)cc1)c1ccc(F)cc1)CC2
EC50 (Protein RecA): 20.2 µM (active)
AC50 [2]: 9.69 µM (active)
EC50 [3]: 6.68 µM (active)
Absolute IC50 (XBP1) (X-box-binding protein 1): 10 µM
AC50 (Cytochrome P450 2C19): 7.94 µM (inconclusive) and 15.8 µM (inconclusive)
CC50 [4]: 32.9 µM (active)
AC50 (Cytochrome P450 1A2): 12.6 µM (inconclusive)

COc1cccc(CC(NC(C)=O)C(=O)NC2CCN(c3nc(C)cc(C)c3C#N)CC2)c1OC (configuration not stated)
EC50 (Troponin, cardiac muscle): > 71.5 µM (inactive)

COC(=O)C(C)Sc1nnc(Cc2cc(O)nc(O)n2)n1-c1ccc(Cl)cc1 (configuration not stated)
IC50 (Coagulation factor XII): > 50 µM (inactive)

Cc1ccc2nc(Nc3ccc4[nH]c(O)nc4c3)c(-n3nc(C)cc3C)nc2c1
Absolute IC50 (XBP1) (X-box-binding protein 1): 10 µM
EC50 (Melanocortin receptor 4): > 89.2 µM (inactive)
